Earlier results in publication PMC8670146 (Journal of Pharmaceutical and Biomedical Analysis, 2021).

Biological target: SARS-CoV-2 3CLpro (Severe acute respiratory syndrome coronavirus 2, UniProt P0DTD1)
Conditions: previous study

Structure (SMILES)	in vitro 3CLpro inhibition activity
O=C(O)[C@H]1O[C@@H](Oc2cc3oc(-c4ccccc4)cc(=O)c3c(O)c2O)[C@H](O)[C@@H](O)[C@@H]1O [compound 1, Baicalin]	showed in vitro 3CLpro inhibition activity
O=c1cc(-c2ccccc2)oc2cc(O)c(O)c(O)c12 [compound 2, Baicalein]	showed in vitro 3CLpro inhibition activity
